Assay results as given in patent US20200022998A1, “MEDICAL USE OF NOTCH4 OR INHIBITORS THEREOF” (BEIJING INSTITUTE OF GENOMICS, CHINESE ACADEMY OF SCIENCES, priority 2016, published 2020).

Tested on: umbilical cord blood-derived CD34+ cells
Assay: megakaryocyte colony forming unit (MK-CFU) experiment, umbilical cord blood-derived CD34+ cells
Format: cell-based, human
Conditions: 10 μM; FIG. 16
Description: Megakaryocyte colony forming unit (MK-CFU) experiment: at Day 14, the cells resulted from induced differentiation were collected, and 7,500 single cells were seeded to collagen-based MegaCult-C Kit. After incubation for 10-12 days, the cells were stained with anti-CD41 antibody and counted. CD41^+ megakaryocyte colonies were counted.

Row | SMILES | ability of megakaryocyte progenitor cells to form mature MK colony (CFU-MK), increase vs control group [folds]
1 | C[C@H](NC(=O)Cc1cc(F)cc(F)c1)C(=O)N[C@H](C(=O)OC(C)(C)C)c1ccccc1 [DAPT] | 2.8
2 | CC(C)(C(=O)NCC(F)(F)C(F)(F)F)C(=O)N[C@@H]1C(=O)Nc2ccccc2-c2ccccc21 [RO4929097] | 2.8
